Patent US20040229251A1, “Detection of guanylyl and adenylyl cyclase activity” (The Regents of the University of Michigna, priority 2003, published 2004)

Columns and labels:
[1] = tested on: wild type adenylyl cyclases (ACs); conditions: addition of Mn2+ compared with Mg2+; cited from earlier work
VC1 and ACGC domains = biological target: T1, VC1 and ACGC domains (UniProt P26769+P30803, D1018C/K938E); experiment: guanylyl cyclase activity in the presence of Mn2+, BODIPY FL-GTPγS as substrate; assay type: biochemical; conditions: 5 mM Mg2+ and 5 mM Mn2+ vs 10 mM Mg2+
T1 construct: The soluble intracellular (C1 and C2) domains of adenylyl cyclase were utilized; The mutations to enhance guanylyl cyclase activity are in the C2 domain
Procedure: This Example describes the effect of Mn^2+ on guanylyl cyclase activity. All assays were performed at 22° C. in the presence of 2 μM BODIPY FL-GTPγS and the presence of 5 mM Mg ^2+ and 5 mM Mn^2+ or 10 mM Mg^2+ and the absence or presence of 100 μM forskolin (Fsk). Assays were performed in a 96 well, low fluorescence microtitre plate using a fluorescence plate reader. Excitation and emission wavelengths were 485 and 525 nm respectively.
The linear portion of the progress curves from data in FIG. 2B was fitted by linear regression with respect to time. The individual rates are plotted against the concentration of the VC1 domain.

[2] = biological target: T2, membrane-bound form of AC1 (adenylyl cyclase type I) expressed in sf9 cells (Homo sapiens, UniProt Q08828); experiment: membrane cyclase fluorescence assay; assay type: biochemical
T2 construct: made in house; host or cells: sf9 cells
Procedure: The activity of a membrane-bound form of AC1 (adenylyl cyclase type I) expressed in sf9 cells was measured using the fluorescence assay described above.

T2 sequence (Q08828 whole entry): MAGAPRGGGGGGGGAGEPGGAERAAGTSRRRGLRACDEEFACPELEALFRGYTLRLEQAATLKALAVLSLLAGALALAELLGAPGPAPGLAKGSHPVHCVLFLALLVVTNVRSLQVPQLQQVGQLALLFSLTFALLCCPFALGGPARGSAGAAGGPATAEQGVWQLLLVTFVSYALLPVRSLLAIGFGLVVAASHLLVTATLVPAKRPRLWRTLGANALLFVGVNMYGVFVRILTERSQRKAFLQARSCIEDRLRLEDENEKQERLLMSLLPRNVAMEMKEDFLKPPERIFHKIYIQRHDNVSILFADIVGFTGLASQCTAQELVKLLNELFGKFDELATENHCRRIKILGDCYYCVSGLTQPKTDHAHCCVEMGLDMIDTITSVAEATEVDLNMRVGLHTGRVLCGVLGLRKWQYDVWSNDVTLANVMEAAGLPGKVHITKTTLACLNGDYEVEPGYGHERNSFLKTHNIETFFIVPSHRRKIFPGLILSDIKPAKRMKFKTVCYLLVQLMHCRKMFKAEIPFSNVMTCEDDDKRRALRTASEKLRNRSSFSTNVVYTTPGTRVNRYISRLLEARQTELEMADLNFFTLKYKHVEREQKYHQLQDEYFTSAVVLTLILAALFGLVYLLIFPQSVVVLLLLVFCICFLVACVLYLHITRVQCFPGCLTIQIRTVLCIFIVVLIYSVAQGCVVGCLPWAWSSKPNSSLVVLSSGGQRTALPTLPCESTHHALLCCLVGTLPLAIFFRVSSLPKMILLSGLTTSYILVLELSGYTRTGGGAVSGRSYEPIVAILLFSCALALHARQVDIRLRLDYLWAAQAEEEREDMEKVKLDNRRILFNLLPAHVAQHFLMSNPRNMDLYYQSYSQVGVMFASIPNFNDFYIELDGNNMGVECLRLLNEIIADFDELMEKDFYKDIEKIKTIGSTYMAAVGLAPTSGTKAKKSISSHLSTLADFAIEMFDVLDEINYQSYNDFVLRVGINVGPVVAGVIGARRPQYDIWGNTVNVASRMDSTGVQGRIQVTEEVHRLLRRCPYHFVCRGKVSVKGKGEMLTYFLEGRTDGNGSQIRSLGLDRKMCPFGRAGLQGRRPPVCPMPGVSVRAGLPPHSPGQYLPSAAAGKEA

Row | SMILES | alteration of the Km for GTP [1] | enhancement of the forskolin-activated rate of accumulation of BODIPY-thio-pyrophosphate (VC1 and ACGC domains; 100 μM forskolin) | effect on basal activity (VC1 and ACGC domains; absence of forskolin) | effective concentration to produce the half maximal activation (EC50) [2]
1 | [Mn+2] [Mn^2+] | at least 1000 fold | over thirty-fold | enhanced basal activity significantly | –
2 | C=C[C@@]1(C)CC(=O)[C@]2(O)[C@@]3(C)[C@@H](O)CCC(C)(C)[C@@H]3[C@H](O)[C@H](OC(C)=O)[C@@]2(C)O1 [forskolin] | – | – | – | consistent with previously published values
